According to patent US20210255193A1, “LYSINE REACTIVE PROBES AND USES THEREOF” (The Scripps Research Institute, priority 2017, published 2021):

Columns and labels:
Test in all cases: competitive isoTOP-ABPP
Format in all cases: binding
[1] = biological target: T1, ATP6V1F V-type proton ATPase subunit F (Homo sapiens, UniProt Q16864); details: 50 uM, in vitro
T1 construct: isoTOP-ABPP experiments performed in cell lysates (in vitro); endogenous in cells; host or cells: soluble proteome of human cancer cell lines (MDA-MB-231; Ramos and Jurkat also prepared)
Method in brief: (§1)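 Here, isoTOP-ABPP measures loss of STP-alkyne labeling at individual lysines after fragment exposure in lysate. Activated esters are dosed at 50 μM, guanidinylating agents at 100 μM; the probe follows at 0.1 mM for 1 h. R ≥4 marks a liganded lysine.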

DTYMK Thymidylate kinase = biological target: T2, DTYMK Thymidylate kinase (Homo sapiens, UniProt P23919); details: 50 uM, in vitro
T2 construct: isoTOP-ABPP experiments performed in cell lysates (in vitro); endogenous in cells; host or cells: soluble proteome of human cancer cell lines (MDA-MB-231; Ramos and Jurkat also prepared)
T2 sequence (P23919 1-212): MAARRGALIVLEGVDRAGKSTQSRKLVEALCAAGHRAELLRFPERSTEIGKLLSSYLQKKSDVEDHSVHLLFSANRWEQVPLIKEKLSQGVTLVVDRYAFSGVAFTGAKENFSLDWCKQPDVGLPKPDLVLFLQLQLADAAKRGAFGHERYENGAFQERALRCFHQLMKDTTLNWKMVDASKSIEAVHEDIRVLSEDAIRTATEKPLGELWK
Method in brief: as §1

[2] = biological target: T3, NLN Neurolysin, mitochondrial (Homo sapiens, UniProt Q9BYT8); details: 50 uM, in vitro
T3 construct: isoTOP-ABPP experiments performed in cell lysates (in vitro); endogenous in cells; host or cells: soluble proteome of human cancer cell lines (MDA-MB-231; Ramos and Jurkat also prepared)
Method in brief: as §1

[3] = biological target: T4, TSTA3 GDP-L-fucose synthase (Homo sapiens, UniProt Q13630); details: 50 uM, in vitro
T4 construct: isoTOP-ABPP experiments performed in cell lysates (in vitro); endogenous in cells; host or cells: soluble proteome of human cancer cell lines (MDA-MB-231, Ramos, Jurkat)
Method in brief: as §1

[4] = biological target: T5, CDK2 Cyclin-dependent kinase 2 (Homo sapiens, UniProt P24941); details: 50 uM, in vitro
T5 construct: isoTOP-ABPP experiments performed in cell lysates (in vitro); endogenous in cells; host or cells: soluble proteome of human cancer cell lines (MDA-MB-231; Ramos and Jurkat also prepared)
Method in brief: as §1

[5] = biological target: T6, EEF1G Elongation factor 1-gamma (Homo sapiens, UniProt P26641); details: 50 uM, in vitro
T6 construct: isoTOP-ABPP experiments performed in cell lysates (in vitro); endogenous in cells; host or cells: soluble proteome of human cancer cell lines (MDA-MB-231; Ramos and Jurkat also prepared)
Method in brief: as §1

TTR Transthyretin = biological target: T7, TTR Transthyretin (Homo sapiens, UniProt P02766); details: 50 uM, in vitro
T7 construct: isoTOP-ABPP experiments performed in cell lysates (in vitro); endogenous in cells; host or cells: MDA-MB-231 soluble lysate
Method in brief: as §1

[6] = biological target: T8, LRRC20 Leucine-rich repeat-containing protein 20 (Homo sapiens, UniProt Q8TCA0); details: 50 uM, 231 sol, in vitro
T8 construct: isoTOP-ABPP experiments performed in cell lysates (in vitro); endogenous in cells; host or cells: soluble proteome of human cancer cell lines (MDA-MB-231; Ramos and Jurkat also prepared)
T8 sequence (Q8TCA0 1-184): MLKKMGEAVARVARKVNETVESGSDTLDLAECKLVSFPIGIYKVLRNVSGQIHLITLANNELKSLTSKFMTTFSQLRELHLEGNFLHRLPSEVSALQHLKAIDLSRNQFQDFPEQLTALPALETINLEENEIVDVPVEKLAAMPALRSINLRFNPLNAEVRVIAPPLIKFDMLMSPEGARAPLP
Method in brief: as §1

[7] = biological target: T9, NUDT22 Nucleoside diphosphate-linked moiety X motif 22 (Homo sapiens, UniProt Q9BRQ3); details: 50 uM, in vitro
T9 construct: isoTOP-ABPP experiments performed in cell lysates (in vitro); endogenous in cells; host or cells: soluble proteome of human cancer cell lines (MDA-MB-231; Ramos and Jurkat also prepared)
T9 sequence (Q9BRQ3 1-303): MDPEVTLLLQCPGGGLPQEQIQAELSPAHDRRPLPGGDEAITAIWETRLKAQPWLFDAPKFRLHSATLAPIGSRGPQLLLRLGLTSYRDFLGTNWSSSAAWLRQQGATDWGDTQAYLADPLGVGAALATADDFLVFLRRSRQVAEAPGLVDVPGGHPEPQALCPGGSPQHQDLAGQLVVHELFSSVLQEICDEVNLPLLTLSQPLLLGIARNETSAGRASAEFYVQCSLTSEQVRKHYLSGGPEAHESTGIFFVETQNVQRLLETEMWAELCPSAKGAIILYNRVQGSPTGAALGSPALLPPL
Method in brief: as §1

T1 sequence (Q16864 whole entry): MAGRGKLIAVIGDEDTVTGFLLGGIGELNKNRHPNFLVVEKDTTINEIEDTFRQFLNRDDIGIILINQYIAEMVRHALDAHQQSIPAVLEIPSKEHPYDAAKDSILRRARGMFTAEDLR
T3 sequence (Q9BYT8 38-704): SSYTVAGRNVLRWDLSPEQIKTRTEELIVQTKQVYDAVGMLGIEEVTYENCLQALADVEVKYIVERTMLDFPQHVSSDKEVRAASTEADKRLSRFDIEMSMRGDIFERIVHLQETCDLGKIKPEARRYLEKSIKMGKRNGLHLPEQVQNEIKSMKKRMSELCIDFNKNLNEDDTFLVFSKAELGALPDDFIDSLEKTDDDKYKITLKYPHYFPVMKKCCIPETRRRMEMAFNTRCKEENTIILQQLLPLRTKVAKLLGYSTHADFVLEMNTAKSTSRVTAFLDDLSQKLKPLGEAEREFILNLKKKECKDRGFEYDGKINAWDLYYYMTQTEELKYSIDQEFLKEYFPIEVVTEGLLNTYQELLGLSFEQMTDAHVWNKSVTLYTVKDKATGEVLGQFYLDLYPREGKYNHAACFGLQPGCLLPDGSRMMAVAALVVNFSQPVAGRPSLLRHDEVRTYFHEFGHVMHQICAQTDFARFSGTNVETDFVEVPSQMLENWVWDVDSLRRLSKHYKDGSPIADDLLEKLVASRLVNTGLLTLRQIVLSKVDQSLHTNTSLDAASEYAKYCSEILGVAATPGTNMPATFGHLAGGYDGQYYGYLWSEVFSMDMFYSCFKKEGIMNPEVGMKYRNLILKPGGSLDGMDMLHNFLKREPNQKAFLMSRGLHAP
T4 sequence (Q13630 whole entry): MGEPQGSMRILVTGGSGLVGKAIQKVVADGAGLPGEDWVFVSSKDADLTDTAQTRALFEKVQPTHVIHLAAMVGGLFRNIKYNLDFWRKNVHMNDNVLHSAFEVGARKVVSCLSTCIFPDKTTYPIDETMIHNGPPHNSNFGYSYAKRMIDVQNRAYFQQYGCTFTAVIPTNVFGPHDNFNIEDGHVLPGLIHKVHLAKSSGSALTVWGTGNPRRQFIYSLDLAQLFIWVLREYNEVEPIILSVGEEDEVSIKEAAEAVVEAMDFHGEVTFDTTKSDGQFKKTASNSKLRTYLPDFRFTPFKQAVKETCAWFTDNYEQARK
T6 sequence (P26641 whole entry): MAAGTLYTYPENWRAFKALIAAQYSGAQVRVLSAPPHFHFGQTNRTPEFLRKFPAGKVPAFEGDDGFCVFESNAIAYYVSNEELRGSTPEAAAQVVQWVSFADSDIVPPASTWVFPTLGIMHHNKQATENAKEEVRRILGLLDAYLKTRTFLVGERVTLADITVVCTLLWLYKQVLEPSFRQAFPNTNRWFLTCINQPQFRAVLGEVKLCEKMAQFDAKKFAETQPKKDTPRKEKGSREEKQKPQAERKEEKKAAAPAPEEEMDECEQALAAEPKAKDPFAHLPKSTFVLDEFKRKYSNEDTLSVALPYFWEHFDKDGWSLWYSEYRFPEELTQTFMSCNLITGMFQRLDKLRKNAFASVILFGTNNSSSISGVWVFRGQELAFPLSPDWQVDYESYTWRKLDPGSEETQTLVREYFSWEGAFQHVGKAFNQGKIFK

COc1cc(CCC(=O)Oc2ccc([N+](=O)[O-])cc2[N+](=O)[O-])cc(OC)c1OC [fragment 33, 2,4-Dinitrophenyl 3-(3,4,5-trimethoxyphenyl)propanoate]
isoTOP-ABPP reactivity ratio at lysine Q16864_K6 ([1]; 231 sol): 0.8 | isoTOP-ABPP reactivity ratio at lysine P23919_K118 (DTYMK Thymidylate kinase; 231 sol): 6.6 | isoTOP-ABPP reactivity ratio at lysine Q9BYT8_K253 ([2]; 231 sol): 4.1 | isoTOP-ABPP reactivity ratio at lysine Q13630_K108 ([3]; 231 sol): 1.2 | isoTOP-ABPP reactivity ratio at lysine P24941_K33 ([4]; 231 sol): 0.7 | isoTOP-ABPP reactivity ratio at lysine P26641_K227 ([5]; 231 sol): 0.7 | isoTOP-ABPP reactivity ratio at lysine P02766_K35 (TTR Transthyretin; 231 sol): 2.7

O=C(CCc1cn(-c2ccccc2)nc1-c1ccccc1)Oc1ccc([N+](=O)[O-])cc1[N+](=O)[O-] [fragment 29, 2,4-Dinitrophenyl 3-(1,3-diphenyl-1H-pyrazol-4-yl)propanoate]
isoTOP-ABPP reactivity ratio at lysine Q16864_K6 ([1]; 231 sol): 0.8 | isoTOP-ABPP reactivity ratio at lysine P23919_K118 (DTYMK Thymidylate kinase; 231 sol): 1.1 | isoTOP-ABPP reactivity ratio at lysine Q9BYT8_K253 ([2]; 231 sol): 1.0 | isoTOP-ABPP reactivity ratio at lysine Q13630_K108 ([3]; 231 sol): 1.1 | isoTOP-ABPP reactivity ratio at lysine P24941_K33 ([4]; 231 sol): 0.9 | isoTOP-ABPP reactivity ratio at lysine P26641_K227 ([5]; 231 sol): 0.7 | isoTOP-ABPP reactivity ratio at lysine Q8TCA0_K43 [6]: 1.3 | isoTOP-ABPP reactivity ratio at lysine P02766_K35 (TTR Transthyretin; 231 sol): 1.6 | isoTOP-ABPP reactivity ratio at lysine Q9BRQ3_K60 ([7]; 231 sol): 0.8

O=C(Oc1c(F)c(F)c(F)c(F)c1F)c1cc(C(F)(F)F)cc(C(F)(F)F)c1 [fragment 21, Pentafluorophenyl 3,5-bis(trifluoromethyl)benzoate]
R value (DMSO/fragment) for probe 1 labeling ([1]; Q16864_K6, 231 sol): 1.1 | R value (DMSO/fragment) for probe 1 labeling (DTYMK Thymidylate kinase; P23919_K118, 231 sol): 0.8 | R value (DMSO/fragment) for probe 1 labeling ([2]; Q9BYT8_K253, 231 sol): 0.7 | R value (DMSO/fragment) for probe 1 labeling ([3]; Q13630_K108, 231 sol): 1.0 | R value (DMSO/fragment) for probe 1 labeling ([4]; P24941_K33, 231 sol): 1.0 | R value (DMSO/fragment) for probe 1 labeling ([5]; P26641_K227, 231 sol): 0.8 | R value (DMSO/fragment) for probe 1 labeling ([6]; Q8TCA0_K43): 1.0 | R value (DMSO/fragment) for probe 1 labeling (TTR Transthyretin; P02766_K35, 231 sol): 2.6 | R value (DMSO/fragment) for probe 1 labeling ([7]; Q9BRQ3_K60, 231 sol): 0.8

CC(C)(C)OC(=O)NCCCC(=O)Oc1ccc([N+](=O)[O-])cc1[N+](=O)[O-] [fragment 41, 2,4-Dinitrophenyl 4-((tert-butoxycarbonyl)amino)butanoate]
isoTOP-ABPP ratio (R) at liganded lysine Q16864_K6 ([1]; sol, 231): 1.0 | isoTOP-ABPP ratio (R) at liganded lysine P23919_K118 (DTYMK Thymidylate kinase; sol, 231): 0.8 | isoTOP-ABPP ratio (R) at liganded lysine Q9BYT8_K253 ([2]; sol, 231): 1.3 | isoTOP-ABPP ratio (R) at liganded lysine Q13630_K108 ([3]; sol, 231): 1.3 | isoTOP-ABPP ratio (R) at liganded lysine P24941_K33 ([4]; sol, 231): 1.0 | isoTOP-ABPP ratio (R) at liganded lysine P26641_K227 ([5]; sol, 231): 0.8 | isoTOP-ABPP ratio (R) at liganded lysine P02766_K35 (TTR Transthyretin; sol, 231): 3.4 | isoTOP-ABPP ratio (R) at liganded lysine Q9BRQ3_K60 ([7]; sol, 231): 20.0
